Experimental data from PubChem BioAssay (NCI).
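48-hour exposure; five concentrations; linearly interpolated endpoints. GI50: concentration for 50% inhibition of growth. TGI: total growth inhibition.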

Key:
Experiment in all cases: inhibition of tumour cell growth, NCI panel, 48 h
A549 NSCLC = system: A549 NSCLC
ACHN renal = system: ACHN renal
BT-549 breast = system: BT-549 breast
CAKI-1 renal = system: CAKI-1 renal
CCRF-CEM leukemia = system: CCRF-CEM leukemia
COLO 205 colon = system: COLO 205 colon
DU-145 prostate = system: DU-145 prostate
EKVX NSCLC = system: EKVX NSCLC
HCC-2998 colon = system: HCC-2998 colon
HCT-116 colon = system: HCT-116 colon
HCT-15 colon = system: HCT-15 colon
HL-60(TB) leukemia = system: HL-60(TB) leukemia
HOP-62 NSCLC = system: HOP-62 NSCLC
HOP-92 NSCLC = system: HOP-92 NSCLC
HS 578T breast = system: HS 578T breast
HT29 colon = system: HT29 colon
IGROV1 ovarian = system: IGROV1 ovarian
K-562 leukemia = system: K-562 leukemia
KM12 colon = system: KM12 colon
LOX IMVI melanoma = system: LOX IMVI melanoma
M14 melanoma = system: M14 melanoma
MALME-3M melanoma = system: MALME-3M melanoma
MCF7 breast = system: MCF7 breast
MDA-MB-231 breast = system: MDA-MB-231 breast
MDA-MB-435 = system: MDA-MB-435
MOLT-4 leukemia = system: MOLT-4 leukemia
NCI-H226 lung = system: NCI-H226 lung
NCI-H23 lung = system: NCI-H23 lung
NCI-H460 lung = system: NCI-H460 lung
NCI-H522 lung = system: NCI-H522 lung
NCI/ADR-RES ovarian = system: NCI/ADR-RES ovarian
OVCAR-3 ovarian = system: OVCAR-3 ovarian
OVCAR-4 ovarian = system: OVCAR-4 ovarian
OVCAR-5 ovarian = system: OVCAR-5 ovarian
OVCAR-8 ovarian = system: OVCAR-8 ovarian
PC-3 prostate = system: PC-3 prostate
RPMI-8226 leukemia = system: RPMI-8226 leukemia
RXF 393 renal = system: RXF 393 renal
SF-268 CNS = system: SF-268 CNS
SF-295 CNS = system: SF-295 CNS
SF-539 CNS = system: SF-539 CNS
SK-MEL-2 melanoma = system: SK-MEL-2 melanoma
SK-MEL-28 melanoma = system: SK-MEL-28 melanoma
SK-MEL-5 melanoma = system: SK-MEL-5 melanoma
SK-OV-3 ovarian = system: SK-OV-3 ovarian
SN12C renal = system: SN12C renal
SNB-19 CNS = system: SNB-19 CNS
SNB-75 CNS = system: SNB-75 CNS
SW-620 colon = system: SW-620 colon
T-47D breast = system: T-47D breast
TK-10 renal = system: TK-10 renal
U251 CNS = system: U251 CNS
UACC-257 melanoma = system: UACC-257 melanoma
UACC-62 melanoma = system: UACC-62 melanoma
UO-31 renal = system: UO-31 renal

Nc1ncc(-c2ccc3ncnc(Nc4ccc(F)c(Cl)c4)c3c2)cn1
GI50 (A549 NSCLC): 1.95 µM | TGI (A549 NSCLC): 8.25 µM | GI50 (ACHN renal): 0.387 µM | TGI (ACHN renal): 2.05 µM | GI50 (BT-549 breast): 1.88 µM | TGI (BT-549 breast): 8.27 µM | GI50 (CAKI-1 renal): 0.367 µM | TGI (CAKI-1 renal): 4.02 µM | GI50 (CCRF-CEM leukemia): 2.86 µM | TGI (CCRF-CEM leukemia): > 100 µM | GI50 (COLO 205 colon): 2.5 µM | TGI (COLO 205 colon): 11.2 µM | GI50 (DU-145 prostate): 0.759 µM | TGI (DU-145 prostate): > 100 µM | GI50 (EKVX NSCLC): 0.252 µM | TGI (EKVX NSCLC): 38 µM | GI50 (HCC-2998 colon): 22.2 µM | TGI (HCC-2998 colon): > 100 µM | GI50 (HCT-116 colon): 1.89 µM | TGI (HCT-116 colon): 3.73 µM | GI50 (HCT-15 colon): 2.54 µM | TGI (HCT-15 colon): > 100 µM | GI50 (HL-60(TB) leukemia): 10.6 µM | TGI (HL-60(TB) leukemia): 29.7 µM | GI50 (HOP-62 NSCLC): 1.7 µM | TGI (HOP-62 NSCLC): 4.45 µM | GI50 (HOP-92 NSCLC): 1.03 µM | TGI (HOP-92 NSCLC): 3.52 µM | GI50 (HS 578T breast): 1.19 µM | TGI (HS 578T breast): 3.52 µM | GI50 (HT29 colon): 2.31 µM | TGI (HT29 colon): 19.3 µM | GI50 (IGROV1 ovarian): 0.258 µM | TGI (IGROV1 ovarian): 2.43 µM | GI50 (K-562 leukemia): 3.25 µM | TGI (K-562 leukemia): > 100 µM | GI50 (KM12 colon): 5.01 µM | TGI (KM12 colon): > 100 µM | GI50 (LOX IMVI melanoma): 2.35 µM | TGI (LOX IMVI melanoma): 10.7 µM | GI50 (M14 melanoma): 3.74 µM | TGI (M14 melanoma): 17.1 µM | GI50 (MALME-3M melanoma): 1.29 µM | TGI (MALME-3M melanoma): 4.47 µM | GI50 (MCF7 breast): 1.49 µM | TGI (MCF7 breast): 20.5 µM | GI50 (MDA-MB-231 breast): 1.44 µM | TGI (MDA-MB-231 breast): 3.8 µM | GI50 (MDA-MB-435): 2.31 µM | TGI (MDA-MB-435): 13.4 µM | GI50 (MOLT-4 leukemia): 2.24 µM | TGI (MOLT-4 leukemia): 9.33 µM | GI50 (NCI-H226 lung): 2.07 µM | TGI (NCI-H226 lung): 4.67 µM | GI50 (NCI-H23 lung): 2.81 µM | TGI (NCI-H23 lung): 39.3 µM | GI50 (NCI-H460 lung): 1.44 µM | TGI (NCI-H460 lung): 2.96 µM | GI50 (NCI-H522 lung): 1.7 µM | TGI (NCI-H522 lung): 8.92 µM | GI50 (NCI/ADR-RES ovarian): 3.8 µM | TGI (NCI/ADR-RES ovarian): 46.2 µM | GI50 (OVCAR-3 ovarian): 1.2 µM | TGI (OVCAR-3 ovarian): 2.57 µM | GI50 (OVCAR-4 ovarian): 1.32 µM | TGI (OVCAR-4 ovarian): 2.97 µM | GI50 (OVCAR-5 ovarian): 1.02 µM | TGI (OVCAR-5 ovarian): 3.69 µM | GI50 (OVCAR-8 ovarian): 2.96 µM | TGI (OVCAR-8 ovarian): 17.5 µM | GI50 (PC-3 prostate): 2.48 µM | TGI (PC-3 prostate): 53.6 µM | GI50 (RPMI-8226 leukemia): 2.15 µM | TGI (RPMI-8226 leukemia): 7.51 µM | GI50 (RXF 393 renal): 0.932 µM | TGI (RXF 393 renal): 3.5 µM | GI50 (SF-268 CNS): 2.48 µM | TGI (SF-268 CNS): 68.5 µM | GI50 (SF-295 CNS): 2.11 µM | TGI (SF-295 CNS): 11 µM | GI50 (SF-539 CNS): 1.52 µM | TGI (SF-539 CNS): 2.93 µM | GI50 (SK-MEL-2 melanoma): 18.2 µM | TGI (SK-MEL-2 melanoma): 39.9 µM | GI50 (SK-MEL-28 melanoma): 3.08 µM | TGI (SK-MEL-28 melanoma): 17.6 µM | GI50 (SK-MEL-5 melanoma): 2.84 µM | TGI (SK-MEL-5 melanoma): 9.69 µM | GI50 (SK-OV-3 ovarian): 0.634 µM | TGI (SK-OV-3 ovarian): 3.96 µM | GI50 (SN12C renal): 1.58 µM | TGI (SN12C renal): 4.1 µM | GI50 (SNB-19 CNS): 3.53 µM | TGI (SNB-19 CNS): 23.5 µM | GI50 (SNB-75 CNS): 0.544 µM | TGI (SNB-75 CNS): 2.43 µM | GI50 (SW-620 colon): 3.02 µM | TGI (SW-620 colon): 11.7 µM | GI50 (T-47D breast): 0.703 µM | TGI (T-47D breast): 3.16 µM | GI50 (TK-10 renal): 0.132 µM | TGI (TK-10 renal): 1.42 µM | GI50 (U251 CNS): 1.72 µM | TGI (U251 CNS): 4.24 µM | GI50 (UACC-257 melanoma): 13.4 µM | TGI (UACC-257 melanoma): 31.7 µM | GI50 (UACC-62 melanoma): 4.99 µM | TGI (UACC-62 melanoma): 39.9 µM | GI50 (UO-31 renal): 0.5 µM | TGI (UO-31 renal): 3.02 µM
